Measurements published in patent publication US20070134259A1, “Methods and compositions for pharmacologially controlled targeted immunotherapy” (priority 2005, published 2007).

Columns and labels:
[1] = target: T1, purified integrin αvβ3 (Homo sapiens, UniProt P05106+P06756); assay: ELISA on purified receptor: RGD-STZ ligand mediated ternary complex formation with anti-STZ rabbit serum; type: binding
T1 construct: purchased Chemicon
Method: Indirect recognition of integrin by streptavidin mediated by RGD-biotin was used as positive control.
96 well polystyrene plates (Nunc) were coated with 1 μg/ml of purified integrin αvβ3 (Chemicon) in buffer: 50 mM Hepes , 0.1 M NaCl, 2 mM CaCl2, 1 mM MnCl2, 1 mM MgCl2 pH 7.5. Blocking was performed with 3% BSA in the same buffer for at least 1 hr.
Ternary complex formation was obtained in concurrent or sequential mode. For sequential mode experiment the ELISA plate was incubated with RGD-STZ (root of ten dilutions starting from 10 μg/ml); 2 hr, room temperature, followed by anti-STZ rabbit serum diluted 3000 times, 1 hr RT. In the concurrent mode the incubation mixture contained both RGD-STZ and anti-STZ rabbit serum. Serum concentration was kept constant (1/3000) while RGD-STZ concentration was varied as before; incubation time 2 hr. The formed complex was detected with goat anti-Rabbit HRP conjugate. Dilutions were made in same buffer supplemented with 0.05% Tween and 0.1% BSA. BSA was not included in the washing steps.
Solid-phase assays were conducted in two different formats: concurrent and sequential incubation. In the concurrent format, RGD-STZ was premixed with rabbit serum 1E6 and incubated on the plate, which was pre-coated with integrin αvβ3. In the sequential format, RGD-STZ was incubated on the integrin coated plate, washed and rabbit serum 1E6 was applied. In both formats, the signal was developed by detection of rabbit antibodies with anti-rabbit HRP antibody conjugate. […] This range of IBAIT concentrations in which a stable ternary complex is produced constitutes a therapeutic window, where the IBAIT can be applied for targeting immunoglobulins to malignancies.
That is, the sequential addition of antibody results in the continued formation of stable ternary complexes until receptor saturation plateaus.

[2] = tested on: HTB-14 cells; assay: Ligand-mediated immunostaining of cells via RGD-STZ and anti-STZ serum; type: cell-based; settings: sequential: RGD-STZ, formaldehyde fixation, anti-STZ serum
Method: Cells could be stained through the ligand mediated association of antibody to the integrin molecule on the cell.
Ligand-mediated staining of HTB-14 cells was performed by incubations in sequential order. Cell were first treated with RGD-STZ then fixed with formaldehyde and stained using anti-STZ serum.
Cells were cultivated as described above. For staining, 6 well tissue culture plate containing chambered cover glasses was placed on ice and medium (DMEM, 10% FBS) replaced with same medium containing mixture of RGD-STZ and anti-STZ serum premixed at proportion giving highest signal in ELISA assay (˜10 μg of RGD-STZ in ml of rabbit serum). Mixture of RGD-STZ and serum was diluted in medium 30, 300 and 3000 times.
After 30 min of incubation specimens were washed with ice cold medium 3 times and incubated with Goat anti-Rabbit Alexa488 at concentration 10 μg/ml in DMEM. After 3 rinses with ice cold DMEM cells were fixed with 10% paraformaldehyde in PBS at room temperature, washed with PBS and mounted as above.
In some experiments cells were primed with RGD-STZ (50 μg/ml in DMEM) on ice for 20 min. then fixed with paraformaldehyde and stained further like described in first protocol.

T1 sequence (P06756 31-889 limits assumed): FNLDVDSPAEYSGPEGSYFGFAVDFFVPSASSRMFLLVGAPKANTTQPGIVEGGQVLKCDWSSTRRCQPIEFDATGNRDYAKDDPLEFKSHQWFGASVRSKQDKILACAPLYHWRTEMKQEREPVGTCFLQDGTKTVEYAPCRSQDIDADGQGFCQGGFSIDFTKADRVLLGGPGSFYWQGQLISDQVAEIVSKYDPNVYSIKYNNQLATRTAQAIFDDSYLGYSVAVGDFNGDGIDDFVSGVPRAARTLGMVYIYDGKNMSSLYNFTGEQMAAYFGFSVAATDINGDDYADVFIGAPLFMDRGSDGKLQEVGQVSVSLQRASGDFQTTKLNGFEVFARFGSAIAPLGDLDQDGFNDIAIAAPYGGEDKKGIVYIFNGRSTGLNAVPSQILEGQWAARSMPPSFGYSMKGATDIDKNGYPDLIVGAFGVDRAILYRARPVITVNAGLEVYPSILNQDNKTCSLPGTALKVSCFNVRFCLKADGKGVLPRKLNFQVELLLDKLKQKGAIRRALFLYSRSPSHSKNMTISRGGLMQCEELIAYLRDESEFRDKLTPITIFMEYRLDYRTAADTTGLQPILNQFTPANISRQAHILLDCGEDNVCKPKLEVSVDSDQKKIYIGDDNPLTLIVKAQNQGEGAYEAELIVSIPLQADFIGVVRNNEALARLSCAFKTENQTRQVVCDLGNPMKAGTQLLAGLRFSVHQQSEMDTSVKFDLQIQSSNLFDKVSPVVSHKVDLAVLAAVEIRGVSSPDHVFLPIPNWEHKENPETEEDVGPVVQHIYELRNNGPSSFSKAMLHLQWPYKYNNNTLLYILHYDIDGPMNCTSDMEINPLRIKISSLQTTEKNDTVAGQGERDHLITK
T1 sequence (P06756 891-1048 partner limits assumed): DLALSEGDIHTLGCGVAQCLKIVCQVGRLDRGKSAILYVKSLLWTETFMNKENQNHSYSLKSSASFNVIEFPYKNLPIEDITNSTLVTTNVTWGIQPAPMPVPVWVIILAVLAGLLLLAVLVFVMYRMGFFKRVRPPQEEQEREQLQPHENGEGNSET
T1 sequence (P05106 27-788): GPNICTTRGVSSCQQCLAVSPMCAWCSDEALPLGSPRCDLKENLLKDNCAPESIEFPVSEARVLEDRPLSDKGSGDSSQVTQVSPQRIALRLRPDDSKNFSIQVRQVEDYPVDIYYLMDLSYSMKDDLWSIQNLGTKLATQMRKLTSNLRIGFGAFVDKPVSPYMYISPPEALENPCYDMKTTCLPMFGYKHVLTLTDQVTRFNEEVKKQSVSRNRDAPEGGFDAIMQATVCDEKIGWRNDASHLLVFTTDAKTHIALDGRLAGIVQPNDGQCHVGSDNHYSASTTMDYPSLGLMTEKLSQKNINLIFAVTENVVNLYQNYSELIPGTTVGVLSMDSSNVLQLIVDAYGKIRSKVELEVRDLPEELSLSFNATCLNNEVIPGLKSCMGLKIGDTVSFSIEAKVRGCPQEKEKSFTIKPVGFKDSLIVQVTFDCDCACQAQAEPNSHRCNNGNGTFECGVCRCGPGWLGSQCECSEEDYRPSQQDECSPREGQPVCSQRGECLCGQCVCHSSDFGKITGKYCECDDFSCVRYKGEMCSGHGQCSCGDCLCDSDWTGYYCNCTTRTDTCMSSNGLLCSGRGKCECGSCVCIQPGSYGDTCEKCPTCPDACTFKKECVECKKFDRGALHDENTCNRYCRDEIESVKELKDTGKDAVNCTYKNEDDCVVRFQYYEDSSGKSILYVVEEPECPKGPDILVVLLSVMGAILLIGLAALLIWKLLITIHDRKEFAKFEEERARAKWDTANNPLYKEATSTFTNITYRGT

cyclo(-R-G-D-f-K(STZ)) [RGD-STZ]
concentration dependence of ELISA signal (ternary complex formation), concurrent incubation ([1]; concurrent format: RGD-STZ premixed with rabbit serum, incubated on integrin coated plate, FIG. 5A): bell-shaped concentration dependencies | indirect recognition of the integrin by anti-STZ antibodies mediated by the ligand ([1]; plates coated with purified αvβ3 integrin, anti-STZ rabbit serum, goat anti-Rabbit HRP detection): excellent indirect recognition | proportion of RGD-STZ and anti-STZ serum giving highest signal in ELISA assay ([1]; premixed RGD-STZ and anti-STZ serum): ~10 μg of RGD-STZ in ml of rabbit serum | concentration dependence of ELISA signal (ternary complex formation), sequential incubation ([1]; sequential format: RGD-STZ incubated on integrin coated plate, washed, then rabbit serum, FIG. 5B): signal that steadily increased with increasing RGD-STZ (IBAIT) concentration | ligand-mediated staining pattern of cells [2]: distinct pattern of dots on the plasma membrane as well as general fluorescent illumination of cells
